Measurements taken from ChEMBL document CHEMBL1201862, “PubChem BioAssay data set” (2004).
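All cell lines were grown in 96-well plates and treated with compound for 48 hours. The concentration for 50% growth inhibition is given as GI50.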 Calls of active or inactive are those of the source. No stated cut-off is given here; in the data, active = GI50 up to about 1.1 µM and inactive = higher.

Key:
Assay in all cases: DTP human tumour cell line panel, 48 h
DU-145 = test system: DU-145
SF-295 = test system: SF-295
A498 = test system: A498
IGROV-1 = test system: IGROV-1
OVCAR-4 = test system: OVCAR-4
SF-539 = test system: SF-539
COLO 205 = test system: COLO 205
Hs-578T = test system: Hs-578T
BT-549 = test system: BT-549
KM12 = test system: KM12
OVCAR-5 = test system: OVCAR-5
MDA-MB-231 = test system: MDA-MB-231
SK-MEL-5 = test system: SK-MEL-5
M14 = test system: M14
EKVX = test system: EKVX
OVCAR-3 = test system: OVCAR-3
NCI-H23 = test system: NCI-H23
ACHN = test system: ACHN
HOP-62 = test system: HOP-62
CCRF-CEM = test system: CCRF-CEM

Measured: GI50

COc1ccc(CNc2nc(NCc3ccc(OC)cc3)nc(N3CCOCC3)n2)cc1
inactive: DU-145 15.1 µM | SF-295 2.77 µM | A498 11 µM | IGROV-1 7.91 µM | OVCAR-4 15.5 µM | SF-539 4.27 µM | COLO 205 3.91 µM | Hs-578T 4.23 µM | BT-549 19.1 µM | KM12 2.34 µM | OVCAR-5 4.26 µM | MDA-MB-231 6.12 µM | SK-MEL-5 5.41 µM | M14 6.35 µM | EKVX 37.4 µM | OVCAR-3 2.44 µM | NCI-H23 3.91 µM | ACHN 5.62 µM | HOP-62 7.11 µM

CCOC(=O)C1=C(N)N2C(=N[C@H]3CCCC[C@@H]32)N=C1
inactive: DU-145 > 100 µM | SF-295 > 100 µM | A498 > 100 µM | IGROV-1 > 100 µM | OVCAR-4 37 µM | SF-539 > 100 µM | COLO 205 > 100 µM | Hs-578T > 100 µM | BT-549 > 100 µM | KM12 > 100 µM | OVCAR-5 > 100 µM | MDA-MB-231 > 100 µM | SK-MEL-5 > 100 µM | M14 > 100 µM | EKVX > 100 µM | OVCAR-3 > 100 µM | NCI-H23 > 100 µM | ACHN > 100 µM

O=C(NCCN1CCOCC1)c1ccc(I)cc1
inactive: A498 > 100 µM | IGROV-1 > 100 µM | OVCAR-4 > 100 µM | SF-539 > 100 µM | Hs-578T > 100 µM | BT-549 > 100 µM | OVCAR-5 > 100 µM | CCRF-CEM > 100 µM | SK-MEL-5 > 100 µM | M14 > 100 µM | EKVX > 100 µM | OVCAR-3 > 100 µM | NCI-H23 > 100 µM | ACHN > 100 µM

COC(=O)CNC(=O)C(CSC(=O)OCC1c2ccccc2-c2ccccc21)NC(=O)CCC(NC(=O)OCC1c2ccccc2-c2ccccc21)C(=O)OC (stereo unspecified)
inactive: DU-145 > 100 µM | SF-295 17.4 µM | IGROV-1 17.8 µM | OVCAR-4 16.9 µM | SF-539 19.2 µM | COLO 205 29.4 µM | Hs-578T 28.4 µM | BT-549 17.5 µM | OVCAR-5 25.6 µM | CCRF-CEM 14 µM | MDA-MB-231 16.6 µM | SK-MEL-5 78.7 µM | M14 24 µM | EKVX 54.3 µM | OVCAR-3 18.1 µM | NCI-H23 17.5 µM | ACHN 55.1 µM | HOP-62 21.1 µM

Cc1ccc(C(=O)N(C2CCCCC2)C2CCCCC2)cc1/N=N/N(C)C
inactive: DU-145 > 10 µM | SF-295 11.4 µM | IGROV-1 15.6 µM | OVCAR-4 10.4 µM | SF-539 19.5 µM | COLO 205 17.7 µM | Hs-578T 21.3 µM | BT-549 13.9 µM | KM12 6.71 µM | OVCAR-5 19 µM | CCRF-CEM 14.9 µM | MDA-MB-231 12.6 µM | SK-MEL-5 14.3 µM | M14 17.6 µM | EKVX 16.3 µM | OVCAR-3 6.34 µM | NCI-H23 11.3 µM | ACHN 8.83 µM | HOP-62 12.3 µM

N/C(=N\n1c(=S)[nH]c2ccccc2c1=O)Nn1c(=S)[nH]c2ccccc2c1=O
inactive: DU-145 > 100 µM | SF-295 > 100 µM | A498 > 100 µM | IGROV-1 28.9 µM | OVCAR-4 49.9 µM | SF-539 18.9 µM | COLO 205 28.8 µM | BT-549 20.3 µM | KM12 96.8 µM | OVCAR-5 80.4 µM | CCRF-CEM 18.8 µM | MDA-MB-231 53.3 µM | SK-MEL-5 44.4 µM | M14 11.4 µM | EKVX 67.6 µM | OVCAR-3 > 100 µM | NCI-H23 23.1 µM | ACHN 46.7 µM | HOP-62 36.4 µM

O=C1NC(=S)N/C1=C\c1ccc(Sc2ccccc2C(=O)O)s1
inactive: DU-145 > 100 µM | SF-295 > 100 µM | A498 > 100 µM | IGROV-1 > 100 µM | OVCAR-4 > 100 µM | COLO 205 > 100 µM | Hs-578T > 100 µM | BT-549 > 100 µM | KM12 > 100 µM | OVCAR-5 > 100 µM | MDA-MB-231 > 100 µM | SK-MEL-5 > 100 µM | EKVX > 100 µM | OVCAR-3 > 100 µM | NCI-H23 > 100 µM | ACHN > 100 µM | HOP-62 > 100 µM

OCC1OC(c2cccc3cc(O)c(O)cc23)CC1O (stereo unspecified)
inactive: DU-145 > 100 µM | SF-295 > 100 µM | A498 > 100 µM | IGROV-1 64 µM | OVCAR-4 > 100 µM | SF-539 > 100 µM | Hs-578T > 100 µM | BT-549 > 100 µM | KM12 > 100 µM | OVCAR-5 > 100 µM | MDA-MB-231 > 100 µM | M14 > 100 µM | EKVX 45.4 µM | OVCAR-3 94.8 µM | ACHN > 100 µM | HOP-62 > 100 µM

CN(C)c1ccc(/C=N\NC(=O)CSCC(=O)N/N=C/c2ccc(N(C)C)cc2)cc1
inactive: DU-145 51.5 µM | SF-295 31.1 µM | IGROV-1 19.4 µM | OVCAR-4 43.9 µM | SF-539 37.3 µM | COLO 205 48 µM | Hs-578T 20.6 µM | BT-549 23.8 µM | KM12 41.2 µM | OVCAR-5 60.5 µM | CCRF-CEM 60.5 µM | MDA-MB-231 13.7 µM | SK-MEL-5 30 µM | M14 33.9 µM | EKVX 44.5 µM | OVCAR-3 68.9 µM | NCI-H23 49.9 µM | ACHN 43.4 µM | HOP-62 62.8 µM

COC(=O)C1=C(C)NC(C)=C(C(=O)OC)C1c1cccc(N=O)c1
inactive: DU-145 15.8 µM | SF-295 52.8 µM | A498 35 µM | IGROV-1 17 µM | OVCAR-4 13.1 µM | SF-539 19.1 µM | COLO 205 18.5 µM | BT-549 17 µM | KM12 16.6 µM | OVCAR-5 18 µM | CCRF-CEM 3.55 µM | MDA-MB-231 14.4 µM | SK-MEL-5 16.3 µM | M14 13.9 µM | EKVX 20.1 µM | OVCAR-3 15.7 µM | NCI-H23 19.5 µM | ACHN 14.5 µM | HOP-62 21.1 µM

COC(=O)[C@@H]1C2OC(C)(C)OC2CN1C(=O)OCc1ccccc1 (stereo partly specified)
inactive: DU-145 > 100 µM | SF-295 > 100 µM | A498 > 100 µM | IGROV-1 > 100 µM | OVCAR-4 > 100 µM | SF-539 > 100 µM | COLO 205 > 100 µM | Hs-578T > 100 µM | BT-549 > 100 µM | KM12 > 100 µM | OVCAR-5 > 100 µM | MDA-MB-231 > 100 µM | SK-MEL-5 > 100 µM | M14 > 100 µM | EKVX > 100 µM | OVCAR-3 > 100 µM | NCI-H23 > 100 µM | ACHN > 100 µM | HOP-62 > 100 µM

CCOC(=O)c1cc2c([nH]1)C(=O)CC1=C2CCN1Cc1ccccc1
inactive: DU-145 15.2 µM | SF-295 18.5 µM | A498 15.3 µM | IGROV-1 17.9 µM | OVCAR-4 13.6 µM | SF-539 22.1 µM | COLO 205 16.8 µM | Hs-578T 20.4 µM | BT-549 18.1 µM | KM12 17.6 µM | CCRF-CEM 4.43 µM | MDA-MB-231 13.2 µM | EKVX 19.8 µM | NCI-H23 16.1 µM | ACHN 12.9 µM

COc1cc2c(cc1OCCCOc1cc3c(cc1OC)C(=O)N1CCC[C@H]1C(=O)N3)N=C[C@@H]1CCCN1C2=O
inactive: DU-145 36.7 µM | SF-295 15.8 µM | A498 17.3 µM | IGROV-1 14.6 µM | OVCAR-4 18.5 µM | COLO 205 3.61 µM | Hs-578T 29 µM | BT-549 10.3 µM | KM12 16.4 µM | OVCAR-5 25.1 µM | MDA-MB-231 14.9 µM | SK-MEL-5 12.5 µM | M14 20.3 µM | EKVX 17 µM | OVCAR-3 19.5 µM | NCI-H23 23.6 µM | ACHN 17.1 µM | HOP-62 34.2 µM

O=C(N[C@H](CO)[C@H](O)c1ccc([N+](=O)[O-])cc1)C(Cl)Cl [CHLORAMPHENICOL]
inactive: DU-145 > 100 µM | SF-295 > 100 µM | A498 > 100 µM | IGROV-1 > 100 µM | OVCAR-4 > 95.9 µM | SF-539 > 100 µM | COLO 205 > 100 µM | BT-549 > 100 µM | KM12 > 100 µM | OVCAR-5 > 100 µM | CCRF-CEM > 100 µM | MDA-MB-231 47.8 µM | SK-MEL-5 > 100 µM | M14 > 100 µM | EKVX > 100 µM | OVCAR-3 > 100 µM | NCI-H23 > 100 µM | ACHN > 100 µM | HOP-62 > 100 µM

CN(C)/N=N/c1[nH]cnc1C(N)=O [DACARBAZINE]
inactive: DU-145 71.9 µM | SF-295 55.1 µM | IGROV-1 68.5 µM | OVCAR-4 34.8 µM | SF-539 65.6 µM | COLO 205 78.9 µM | Hs-578T 63 µM | BT-549 51.3 µM | KM12 92.7 µM | OVCAR-5 81.5 µM | CCRF-CEM 11.6 µM | MDA-MB-231 51.3 µM | SK-MEL-5 74.6 µM | M14 27.2 µM | OVCAR-3 55.3 µM | NCI-H23 93.8 µM | HOP-62 24.5 µM
